In PubChem BioAssay (NCI):
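The compound was tested at five concentrations on cells cultured in 96-well plates, with a 48-hour exposure period. The concentration for 50% growth inhibition is given as GI50. TGI is the concentration that stops growth completely.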

Columns and labels:
Assay in all cases: inhibition of tumour cell growth, NCI panel, 48 h
[1] = tested on: HCT-116 colon
[2] = tested on: COLO 205 colon
[3] = tested on: UACC-62 melanoma
[4] = tested on: BT-549 breast
[5] = tested on: SR leukemia
[6] = tested on: MDA-MB-231 breast
[7] = tested on: NCI-H460 lung
[8] = tested on: MALME-3M melanoma
[9] = tested on: NCI-H522 lung
[10] = tested on: DU-145 prostate
[11] = tested on: ACHN renal
[12] = tested on: SNB-19 CNS
[13] = tested on: OVCAR-5 ovarian
[14] = tested on: CAKI-1 renal
[15] = tested on: IGROV1 ovarian
[16] = tested on: HOP-92 NSCLC
[17] = tested on: U251 CNS
[18] = tested on: HOP-62 NSCLC
[19] = tested on: SNB-75 CNS
[20] = tested on: PC-3 prostate
[21] = tested on: RXF 393 renal
[22] = tested on: A498 renal
[23] = tested on: NCI-H23 lung
[24] = tested on: MDA-MB-435
[25] = tested on: NCI/ADR-RES ovarian
[26] = tested on: SK-MEL-2 melanoma
[27] = tested on: SK-MEL-28 melanoma
[28] = tested on: SK-OV-3 ovarian
[29] = tested on: CCRF-CEM leukemia
[30] = tested on: HCT-15 colon
[31] = tested on: RPMI-8226 leukemia
[32] = tested on: SN12C renal
[33] = tested on: SK-MEL-5 melanoma
[34] = tested on: SF-295 CNS
[35] = tested on: HT29 colon
[36] = tested on: HS 578T breast
[37] = tested on: KM12 colon
[38] = tested on: T-47D breast
[39] = tested on: SF-268 CNS
[40] = tested on: UO-31 renal
[41] = tested on: HL-60(TB) leukemia
[42] = tested on: HCC-2998 colon
[43] = tested on: SW-620 colon
[44] = tested on: A549 NSCLC
[45] = tested on: UACC-257 melanoma
[46] = tested on: 786-0 renal
[47] = tested on: MCF7 breast
[48] = tested on: NCI-H226 lung
[49] = tested on: TK-10 renal
[50] = tested on: SF-539 CNS
[51] = tested on: OVCAR-8 ovarian
[52] = tested on: OVCAR-4 ovarian
[53] = tested on: M14 melanoma
[54] = tested on: EKVX NSCLC
[55] = tested on: K-562 leukemia
[56] = tested on: MOLT-4 leukemia

Compound: O=C1CC2(CCOCC2)Oc2ncccc21
- GI50 [1]: 1.87 µM
- TGI [1]: 3.59 µM
- GI50 [2]: 1.91 µM
- TGI [2]: 4 µM
- GI50 [3]: 1.7 µM
- TGI [3]: 3.22 µM
- GI50 [4]: 1.84 µM
- TGI [4]: 3.36 µM
- GI50 [5]: 0.974 µM
- TGI [5]: 4.69 µM
- GI50 [6]: 1.7 µM
- TGI [6]: 3.15 µM
- GI50 [7]: 2.3 µM
- TGI [7]: 5.61 µM
- GI50 [8]: 1.79 µM
- TGI [8]: 3.51 µM
- GI50 [9]: 2 µM
- TGI [9]: 4.15 µM
- GI50 [10]: 2.98 µM
- TGI [10]: 8.42 µM
- GI50 [11]: 1.81 µM
- TGI [11]: 3.21 µM
- GI50 [12]: 2.05 µM
- TGI [12]: 4.83 µM
- GI50 [13]: 1.7 µM
- TGI [13]: 3.18 µM
- GI50 [14]: 1.6 µM
- TGI [14]: 3.04 µM
- GI50 [15]: 1.88 µM
- TGI [15]: 3.86 µM
- GI50 [16]: 1.67 µM
- TGI [16]: 3.3 µM
- GI50 [17]: 1.83 µM
- TGI [17]: 3.63 µM
- GI50 [18]: 3.24 µM
- TGI [18]: 13.1 µM
- GI50 [19]: 2.07 µM
- TGI [19]: 12.4 µM
- GI50 [20]: 2.42 µM
- TGI [20]: 6.03 µM
- GI50 [21]: 1.77 µM
- TGI [21]: 3.41 µM
- GI50 [22]: 2.38 µM
- TGI [22]: 9.57 µM
- GI50 [23]: 1.89 µM
- TGI [23]: 3.86 µM
- GI50 [24]: 2 µM
- TGI [24]: 4.3 µM
- GI50 [25]: 2.05 µM
- TGI [25]: 4.99 µM
- GI50 [26]: 2.73 µM
- TGI [26]: 7.32 µM
- GI50 [27]: 1.81 µM
- TGI [27]: 3.36 µM
- GI50 [28]: 15.7 µM
- TGI [28]: 29.3 µM
- GI50 [29]: 2.11 µM
- TGI [29]: 4.74 µM
- GI50 [30]: 1.7 µM
- TGI [30]: 3.34 µM
- GI50 [31]: 0.545 µM
- TGI [31]: 4.7 µM
- GI50 [32]: 1.84 µM
- TGI [32]: 3.44 µM
- GI50 [33]: 2.09 µM
- TGI [33]: 4.34 µM
- GI50 [34]: 12.5 µM
- TGI [34]: 25.4 µM
- GI50 [35]: 2.19 µM
- TGI [35]: 4.85 µM
- GI50 [36]: 2.54 µM
- TGI [36]: 8.26 µM
- GI50 [37]: 2.76 µM
- TGI [37]: 7.65 µM
- GI50 [38]: 4.66 µM
- TGI [38]: 26.9 µM
- GI50 [39]: 2.55 µM
- TGI [39]: 7.7 µM
- GI50 [40]: 2.63 µM
- TGI [40]: 12.8 µM
- GI50 [41]: 2.23 µM
- TGI [41]: 5.2 µM
- GI50 [42]: 1.78 µM
- TGI [42]: 3.4 µM
- GI50 [43]: 1.77 µM
- TGI [43]: 3.5 µM
- GI50 [44]: 4.94 µM
- TGI [44]: 19.1 µM
- GI50 [45]: 2.53 µM
- TGI [45]: 7.53 µM
- GI50 [46]: 2.38 µM
- TGI [46]: 6.33 µM
- GI50 [47]: 2.8 µM
- TGI [47]: 12.8 µM
- GI50 [48]: 2.06 µM
- TGI [48]: 4.59 µM
- GI50 [49]: 6.68 µM
- TGI [49]: 37.1 µM
- GI50 [50]: 1.74 µM
- TGI [50]: 3.22 µM
- GI50 [51]: 2.19 µM
- TGI [51]: 4.92 µM
- GI50 [52]: 2.1 µM
- TGI [52]: 4.82 µM
- GI50 [53]: 1.85 µM
- TGI [53]: 3.76 µM
- GI50 [54]: 1.84 µM
- TGI [54]: 3.87 µM
- GI50 [55]: 1.99 µM
- TGI [55]: > 100 µM
- GI50 [56]: 2.11 µM
- TGI [56]: 4.8 µM
